According to PubChem BioAssay (NCI):
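GI50: concentration for 50% inhibition of growth. TGI: total growth inhibition.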

Columns and labels:
Experiment in all cases: growth of human tumour cells (NCI), 384-well format; in the data active = GI50 below about 0.43 µM; inactive = the rest
[1] = test system: EKVX NSCLC
[2] = test system: OVCAR-4 ovarian
[3] = test system: MOLT-4 leukemia
[4] = test system: MCF7 breast
[5] = test system: BT-549 breast
[6] = test system: DU-145 prostate
[7] = test system: UACC-257 melanoma
[8] = test system: PC-3 prostate
[9] = test system: NCI-H322M lung
[10] = test system: HCT-15 colon
[11] = test system: A549 NSCLC
[12] = test system: SF-539 CNS
[13] = test system: SR leukemia
[14] = test system: HL-60(TB) leukemia
[15] = test system: SK-MEL-5 melanoma
[16] = test system: MDA-MB-435 melanoma
[17] = test system: U251 glioblastoma
[18] = test system: HT29 colon
[19] = test system: MDA-MB-231 breast
[20] = test system: HCC-2998 colon
[21] = test system: MDA-MB-468 breast
[22] = test system: NCI-H460 NSCLC
[23] = test system: HOP-62 NSCLC
[24] = test system: T-47D breast
[25] = test system: LOX IMVI melanoma
[26] = test system: SF-268 CNS
[27] = test system: NCI-H23 lung
[28] = test system: SNB-19 CNS
[29] = test system: IGROV1 ovarian
[30] = test system: OVCAR-3 ovarian
[31] = test system: NCI-H522 lung
[32] = test system: SK-MEL-28 melanoma
[33] = test system: RPMI-8226 leukemia
[34] = test system: ACHN renal
[35] = test system: HS 578T breast
[36] = test system: M14 melanoma
[37] = test system: TK-10 renal
[38] = test system: MALME-3M melanoma
[39] = test system: SK-OV-3 ovarian
[40] = test system: OVCAR-8 ovarian
[41] = test system: SF-295 CNS
[42] = test system: NCI-H226 lung
[43] = test system: HOP-92 NSCLC
[44] = test system: A498 renal
[45] = test system: CAKI-1 renal
[46] = test system: KM12 colon
[47] = test system: SN12C renal
[48] = test system: COLO 205 colon
[49] = test system: UACC-62 melanoma
[50] = test system: OVCAR-5 ovarian
[51] = test system: RXF 393 renal
[52] = test system: NCI/ADR-RES ovarian
[53] = test system: HCT-116 colon
[54] = test system: SNB-75 CNS

Cc1c(Cn2c(C)nc3c(C(=O)O)cc(N4CCOCC4)cc32)cccc1C(F)(F)F
41.4 µM: TGI [3]
8.29 µM: TGI [44]
> 100 µM: TGI [1] | TGI [2] | TGI [4] | TGI [5] | TGI [6] | TGI [7] | TGI [8] | TGI [9] | TGI [10] | TGI [11] | TGI [12] | TGI [14] | TGI [16] | TGI [17] | TGI [18] | TGI [19] | TGI [20] | TGI [21] | TGI [22] | TGI [23] | TGI [24] | TGI [25] | TGI [26] | TGI [27] | TGI [28] | TGI [29] | TGI [30] | TGI [31] | TGI [32] | TGI [33] | TGI [34] | TGI [35] | TGI [36] | TGI [37] | TGI [38] | TGI [39] | TGI [40] | TGI [41] | TGI [42] | TGI [43] | TGI [45] | TGI [46] | TGI [47] | TGI [48] | TGI [49] | TGI [50] | TGI [51] | TGI [53] | TGI [54]
40.8 µM: TGI [13]
inactive: GI50 [1] 58.1 µM | GI50 [2] 31.8 µM | GI50 [3] 19.6 µM | GI50 [4] 59.9 µM | GI50 [5] 67.4 µM | GI50 [6] 52.1 µM | GI50 [7] 56.3 µM | GI50 [8] 26.9 µM | GI50 [9] 60.9 µM | GI50 [10] 3.97 µM | GI50 [11] 62.1 µM | GI50 [12] 54 µM | GI50 [13] 18.5 µM | GI50 [14] 18.3 µM | GI50 [15] 18 µM | GI50 [16] 75 µM | GI50 [17] 48.8 µM | GI50 [18] 54.7 µM | GI50 [19] 97.2 µM | GI50 [20] 45.2 µM | GI50 [21] 49.2 µM | GI50 [22] 33.9 µM | GI50 [23] 24.5 µM | GI50 [24] > 100 µM | GI50 [25] 33.1 µM | GI50 [26] 70.6 µM | GI50 [27] 85.8 µM | GI50 [28] 89.1 µM | GI50 [29] 64.4 µM | GI50 [30] 39.3 µM | GI50 [31] 75.6 µM | GI50 [32] > 100 µM | GI50 [33] 46.7 µM | GI50 [34] 20.8 µM | GI50 [35] 82.8 µM | GI50 [36] 30.1 µM | GI50 [37] 35.2 µM | GI50 [38] > 100 µM | GI50 [39] 61.8 µM | GI50 [40] 44.1 µM | GI50 [41] 22.2 µM | GI50 [42] 64.9 µM | GI50 [43] 72.7 µM | GI50 [44] 0.462 µM | GI50 [45] 57.7 µM | GI50 [46] 73 µM | GI50 [47] 30.6 µM | GI50 [48] 99.8 µM | GI50 [49] 75.8 µM | GI50 [50] 52.4 µM | GI50 [51] 14.6 µM | GI50 [52] 3.1 µM | GI50 [53] 38.2 µM | GI50 [54] 63.4 µM
57.8 µM: TGI [15]
11.1 µM: TGI [52]
